For this assay, the target named is Keap1 (Homo sapiens (Human), UniProt Q14145). Briefly: HEK293 ARE luciferase assay. It counts as cell-based. As to conditions: HEK-293 ARE firefly luciferase transiently transfected cells; 18 h incubation; mean of 1 to 20 individual measurements. An outline of the steps: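 Transiently transfected HEK-293 ARE firefly luciferase cells (10,000/well, DMEM with 10% FCS) exposed to compound, 10-point curve from 100 μM top, 0.3% DMSO, 18 h at 37 °C. SteadyGlo luminescence; activity normalised to 30 μM tBHQ (stimulator) and DMSO (neutral), activity threshold 50; means of 1-20 measurements.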
Sequence of Keap1 (Q14145 whole entry): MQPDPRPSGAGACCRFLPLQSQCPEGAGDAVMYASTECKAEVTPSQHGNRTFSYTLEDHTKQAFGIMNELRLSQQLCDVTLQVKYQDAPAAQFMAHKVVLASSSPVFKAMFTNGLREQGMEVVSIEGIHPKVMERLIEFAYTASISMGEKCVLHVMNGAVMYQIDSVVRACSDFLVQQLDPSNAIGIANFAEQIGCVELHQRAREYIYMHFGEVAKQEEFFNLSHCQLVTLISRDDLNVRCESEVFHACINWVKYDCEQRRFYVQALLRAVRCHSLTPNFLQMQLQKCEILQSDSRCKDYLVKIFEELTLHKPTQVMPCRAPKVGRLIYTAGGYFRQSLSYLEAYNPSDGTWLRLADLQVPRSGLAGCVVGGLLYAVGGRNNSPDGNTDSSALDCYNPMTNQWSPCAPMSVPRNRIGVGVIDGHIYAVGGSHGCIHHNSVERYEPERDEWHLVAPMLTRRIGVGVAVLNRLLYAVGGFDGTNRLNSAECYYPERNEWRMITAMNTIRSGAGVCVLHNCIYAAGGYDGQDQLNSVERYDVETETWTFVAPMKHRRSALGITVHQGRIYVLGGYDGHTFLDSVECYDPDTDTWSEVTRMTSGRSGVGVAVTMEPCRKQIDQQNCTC
Broadly, the EC50 is the concentration needed to bring the measured effect to its halfway point. Take `COC1(c2cccnc2-c2cnn(C)c2)C=C(C#N)C(=O)C(C)(C)C1` (stereo not shown) [Compound 25, 3-methoxy-5,5-dimethyl-3-[2-(1-methylpyrazol-4-yl)-3-pyridyl]-6-oxo-cyclohexene-1-carbonitrile]: the midpoint of the response, the EC50, lay at 70 nM.
`COC1(c2ncc(F)cc2F)C=C(C#N)C(=O)C(C)(C)C1` (stereo not shown) [Compound 28, 3-(3,5-difluoropyridin-2-yl)-3-methoxy-5,5-dimethyl-6-oxocyclohex-1-enecarbonitrile]: it took 36 nM to reach a half-maximal effect (EC50).
The molecule `COC1(c2ccc(C)nc2C)C=C(C#N)C(=O)C(C)(C)C1` (stereo not shown) [Compound 29, 3-(2,6-dimethylpyridin-3-yl)-3-methoxy-5,5-dimethyl-6-oxocyclohex-1-enecarbonitrile] displayed a half-maximal effective concentration (EC50) of 91 nM.
Then `COC1(c2cncc(C)n2)C=C(C#N)C(=O)C(C)(C)C1` (stereo not shown) [Compound 30, 3-methoxy-5,5-dimethyl-3-(6-methylpyrazin-2-yl)-6-oxocyclohex-1-enecarbonitrile], with 458 nM.
For `CO[C@]1(c2ncsc2C)C=C(C#N)C(=O)C(C)(C)C1` [Compound 38, (S)-3-methoxy-5,5-dimethyl-3-(5-methylthiazol-4-yl)-6-oxocyclohex-1-enecarbonitrile] the value was 132 nM; for `CO[C@]1(c2ncc(C)s2)C=C(C#N)C(=O)C(C)(C)C1` [Compound 40, (S)-3-methoxy-5,5-dimethyl-3-(5-methylthiazol-2-yl)-6-oxocyclohex-1-enecarbonitrile], 38 nM.
Then `CO[C@]1(c2ncc(F)cc2C(F)F)C=C(C#N)C(=O)C(C)(C)C1` [Compound 42, (3S)-3-[3-(difluoromethyl)-5-fluoropyridin-2-yl]-3-methoxy-5,5-dimethyl-6-oxocyclohex-1-ene-1-carbonitrile], with 33 nM; and `COC1(c2sc(C)nc2C)C=C(C#N)C(=O)C(C)(C)C1` (stereo not shown) [Compound 46, 3-(2,4-dimethylthiazol-5-yl)-3-methoxy-5,5-dimethyl-6-oxocyclohex-1-enecarbonitrile], with 304 nM.
Molecule `CO[C@]1(c2ncccc2C(F)F)C=C(C#N)C(=O)C2(CC2)C1` [Compound 55, (S)-7-[3-(difluoromethyl)pyridin-2-yl]-7-methoxy-4-oxospiro[2.5]oct-5-ene-5-carbonitrile] showed an EC50 of 14 nM.
For `COC1(c2ncc(C)s2)C=C(C#N)C(=O)C2(CC2)C1` (stereo not shown) [Compound 64, 7-methoxy-7-(5-methyl-1,3-thiazol-2-yl)-4-oxospiro[2.5]oct-5-ene-5-carbonitrile] the value was 145 nM; for `COC1(c2ccc(Cl)cn2)C=C(C#N)C(=O)C2(CC2)C1` (stereo not shown) [Compound 65, 7-(5-chloropyridin-2-yl)-7-methoxy-4-oxospiro[2.5]oct-5-ene-5-carbonitrile], 247 nM.
Then `CO[C@]1(c2ncc(F)cc2-c2ccc(=O)n(C)c2)C=C(C#N)C(=O)C(C)(C)C1` [Compound 74, (S)-3-[5-fluoro-3-(1-methyl-6-oxo-3-pyridyl)-2-pyridyl]-3-methoxy-5,5-dimethyl-6-oxo-cyclohexene-1-carbonitrile], with 15 nM; and `CO[C@]1(c2ncc(F)cc2-c2ccns2)C=C(C#N)C(=O)C(C)(C)C1` [Compound 80, (S)-3-(5-fluoro-3-isothiazol-5-yl-2-pyridyl)-3-methoxy-5,5-dimethyl-6-oxo-cyclohexene-1-carbonitrile], with 2 nM; and `COC1(c2ncc(F)cc2-c2cncc(S(C)(=O)=O)c2)C=C(C#N)C(=O)C(C)(C)C1` (stereo not shown) [Compound 96, 3-(5-fluoro-5′-(methylsulfonyl)-[3,3′-bipyridin]-2-yl)-3-methoxy-5,5-dimethyl-6-oxocyclohex-1-ene-1-carbonitrile], with 7 nM.
`CC#Cc1cccc(C2(OC)C=C(C#N)C(=O)C(C)(C)C2)n1` (stereo not shown) [Compound 103, 3-Methoxy-5,5-dimethyl-6-oxo-3-(6-(prop-1-ynyl)pyridin-2-yl)cyclohex-1-enecarbonitrile]: a half-maximal effect (EC50) was put at 77 nM.
`COC1(c2cccc(-c3c(C)noc3C)n2)C=C(C#N)C(=O)C(C)(C)C1` (stereo not shown) [Compound 105, 3-(6-(3,5-dimethylisoxazol-4-yl)pyridin-2-yl)-3-methoxy-5,5-dimethyl-6-oxocyclohex-1-ene-1-carbonitrile] yielded an EC50 of 36 nM.
Then `COC1(c2cccc(-c3ccnn3C)n2)C=C(C#N)C(=O)C(C)(C)C1` (stereo not shown) [Compound 106, 3-methoxy-5,5-dimethyl-3-(6-(1-methyl-1H-pyrazol-5-yl)pyridin-2-yl)-6-oxocyclohex-1-ene-1-carbonitrile], with 120 nM.
Then `COC1(c2ncccc2Br)CC(C)(C)C(=O)C(C#N)=C1C` (stereo not shown) [Compound 108, 3-(3-bromo-2-pyridyl)-3-methoxy-2,5,5-trimethyl-6-oxo-cyclohexene-1-carbonitrile], with 1900 nM.
For `COC1(c2cccc(C3CC3)n2)C=C(C#N)C(=O)C(C)(C)C1` (stereo not shown) [Compound 109, 3-(6-cyclopropylpyridin-2-yl)-3-methoxy-5,5-dimethyl-6-oxocyclohex-1-ene-1-carbonitrile] the value was 185 nM; for `COC1(c2cccc(N3CCOCC3)n2)C=C(C#N)C(=O)C(C)(C)C1` (stereo not shown) [Compound 110, 3-methoxy-5,5-dimethyl-3-[6-(morpholin-4-yl)pyridin-2-yl]-6-oxocyclohex-1-ene-1-carbonitrile], 109 nM; for `COC1(c2cccc(-c3cnn(C)c3)n2)C=C(C#N)C(=O)C(C)(C)C1` (stereo not shown) [Compound 111, 3-methoxy-5,5-dimethyl-3-[6-(1-methyl-1H-pyrazol-4-yl)pyridin-2-yl]-6-oxocyclohex-1-ene-1-carbonitrile], 65 nM.
Consider `COC1(c2cc(-c3cnn(C)c3)ccn2)C=C(C#N)C(=O)C(C)(C)C1` (stereo not shown) [Compound 112, 3-methoxy-5,5-dimethyl-3-[4-(1-methyl-1H-pyrazol-4-yl)pyridin-2-yl]-6-oxocyclohex-1-ene-1-carbonitrile], for which the half-maximal effective concentration (EC50) worked out at 371 nM.
On to `COC1(c2ccc(Br)cn2)C=C(C#N)C(=O)C(C)(C)C1` (stereo not shown) [Compound 113, 3-(5-bromopyridin-2-yl)-3-methoxy-5,5-dimethyl-6-oxocyclohex-1-ene-1-carbonitrile], for which the EC50 worked out at 343 nM.
Then `COC1(c2ncccc2Cl)C=C(C#N)C(=O)C(C)(C)C1` (stereo not shown) [Compound 114, 3-(3-chloropyridin-2-yl)-3-methoxy-5,5-dimethyl-6-oxocyclohex-1-ene-1-carbonitrile], with 235 nM; and `COC1(c2ccc(-c3cnn(C)c3)cn2)C=C(C#N)C(=O)C(C)(C)C1` (stereo not shown) [Compound 115, 3-methoxy-5,5-dimethyl-3-[5-(1-methyl-1H-pyrazol-4-yl)pyridin-2-yl]-6-oxocyclohex-1-ene-1-carbonitrile], with 106 nM.
For `COC1(c2cccc(-c3cccnc3)n2)C=C(C#N)C(=O)C(C)(C)C1` (stereo not shown) [Compound 116, 3-([2,3′-bipyridin]-6-yl)-3-methoxy-5,5-dimethyl-6-oxocyclohex-1-ene-1-carbonitrile] the value was 382 nM; for `COC1(c2cccc(-c3cncnc3)n2)C=C(C#N)C(=O)C(C)(C)C1` (stereo not shown) [Compound 117, 3-methoxy-5,5-dimethyl-6-oxo-3-[6-(pyrimidin-5-yl)pyridin-2-yl]cyclohex-1-ene-1-carbonitrile], 34 nM; for `COC1(c2cccc(-c3ccccc3F)n2)C=C(C#N)C(=O)C(C)(C)C1` (stereo not shown) [Compound 118, 3-[6-(2-fluorophenyl)pyridin-2-yl)-3-methoxy-5,5-dimethyl-6-oxocyclohex-1-ene-1-carbonitrile], 355 nM.
Then `COc1ccccc1-c1cccc(C2(OC)C=C(C#N)C(=O)C(C)(C)C2)n1` (stereo not shown) [Compound 119, 3-methoxy-3-[6-(2-methoxyphenyl)pyridin-2-yl]-5,5-dimethyl-6-oxocyclohex-1-ene-1-carbonitrile], with 141 nM; and `COc1ccccc1-c1cccc(C2(OC)C=C(C#N)C(=O)C(C)(C)C2)n1` (stereo not shown) [Compound 120, 3-methoxy-3-[6-(2-methoxyphenyl)pyridin-2-yl]-5,5-dimethyl-6-oxocyclohex-1-ene-1-carbonitrile], with 245 nM.
The molecule `COC1(c2ncccc2C(F)(F)F)C=C(C#N)C(=O)C(C)(C)C1` (stereo not shown) [Compound 122, 3-methoxy-5,5-dimethyl-6-oxo-3-[3-(trifluoromethyl)pyridin-2-yl]cyclohex-1-ene-1-carbonitrile] yielded an EC50 of 43 nM. Against the preceding molecule, the EC50 is about 5.7-fold lower.
The molecule `COC1(c2ccc(F)cn2)C=C(C#N)C(=O)C(C)(C)C1` (stereo not shown) [Compound 123, 3-(5-fluoropyridin-2-yl)-3-methoxy-5,5-dimethyl-6-oxocyclohex-1-ene-1-carbonitrile] displayed an EC50 of 61 nM. This EC50 and that of the molecule before are within 1.5-fold of each other.
Then `COC1(c2ncccc2C(F)F)C=C(C#N)C(=O)C(C)(C)C1` (stereo not shown) [Compound 124, 3-[3-(difluoromethyl)pyridin-2-yl]-3-methoxy-5,5-dimethyl-6-oxocyclohex-1-ene-1-carbonitrile], with 27 nM; and `COC1(c2cccc(-c3nccs3)n2)C=C(C#N)C(=O)C(C)(C)C1` (stereo not shown) [Compound 125, 3-methoxy-5,5-dimethyl-6-oxo-3-[6-(1,3-thiazol-2-yl)pyridin-2-yl]cyclohex-1-ene-1-carbonitrile], with 236 nM.
For `COC1(c2cccc(-c3cnn(C)c3)n2)C=C(C#N)C(=O)C2(CC2)C1` (stereo not shown) [Compound 126, 7-methoxy-7-[6-(1-methyl-1H-pyrazol-4-yl)pyridin-2-yl]-4-oxospiro[2.5]oct-5-ene-5-carbonitrile] the value was 85 nM; for `COC1(c2cccc(-c3cncnc3)n2)C=C(C#N)C(=O)C2(CC2)C1` (stereo not shown) [Compound 127, 7-methoxy-4-oxo-7-[6-(pyrimidin-5-yl)pyridin-2-yl]spiro[2.5]oct-5-ene-5-carbonitrile], 267 nM; for `COC1(c2cccc(-c3cnc(C)nc3)n2)C=C(C#N)C(=O)C2(CC2)C1` (stereo not shown) [Compound 128, 7-methoxy-7-[6-(2-methylpyrimidin-5-yl)pyridin-2-yl]-4-oxospiro[2.5]oct-5-ene-5-carbonitrile], 145 nM.

For the origin of these results see patent US11479539B2, “Small molecule modulators of the BTB domain of Keap1” (MedImmune Limited, priority 2017, dated 2022).
